Experimental data from patent publication US6358713B1, “In vitro ribosome evolution” (Johns Hopkins University, priority 1999, dated 2002).

Key:
[1] = system: peptidyl transferase A site of the 50S subunit; assay: Kinetic characterization of A-site substrates in the peptidyl transferase fragment reaction; assay type: biochemical; settings: fragment reaction conditions, P-site substrate N-Ac-Met-ACCACC
Method: Synthesis of 4-thio-dT-p-C-p-puromycin 5′-Dimethoxytrityl-Nα-trifluoroacetyl-puromycin was attached to alkylamine-derivatized controlled pore glass via a 2′-succinate linkage by standard methods. See, Atkinson and Smith, Solid Phase Synthesis of Oligodeoxyribonucleotides by the Phosphate-triester Method, in Oligonucleotide Synthesis: A Practical Approach, Oxford: IRL Press, pp. 35-81, 1985. 4-Thio-dT-p-C-p-Puromycin (s^4TCPm) was prepared by standard phosphoramidite chemistry using the solid-phase version of puromycin, and rC and 4-thio-dT phosphoramidites (Glen Research Corporation, Sterling, Va.). Deprotection was performed by treatment with 3:1 NH4OH:MeOH/50 mM NaSH overnight at 55° C. Subsequently, 40 equivalents of 1 M tetrabutylammonium fluoride (TBAF) in tetrahydrofuran (THF) were added to the dried product and incubated overnight at room temperature. Finally, 20 mM triethylamine-acetate (pH. 7.0) was added to the reaction mixture, loaded directly on a C18 HPLC column, and eluted with increasing concentrations of acetonitrile (CH3CN). Multiple peaks were collected and the purity of the products was analyzed on a 20% polyacrylamide/7M urea gel following 5′-[^32P]-end-labelling using polynucleotide kinase. Although two peaks appeared to be relatively pure by this analysis, only the slowest migrating peak on the HPLC had any crosslinking ability. Kinetic characterization of s^4TCPm was performed using the tRNA fragment N-Ac-Met-ACCACC, as a P-site substrate, using fragment reaction conditions, and paper electrophoresis analysis of the resulting product, s^4TCPm-N-Ac-Met, as described by Green and Noller, RNA, 1996, 2:1011-1021. This analysis was complicated by the apparent affinity of the compound for both the A and P sites at high concentrations. The P-site affinity may be attributable to wobble pairing between 4-thio-dT (which mimics C74 of tRNA) and G2252 of 23S rRNA. See, Samaha et al., Nature 1995, 377:309-314. […]

[2] = system: 23S rRNA of E. coli tight-couple 70S ribosomes; assay: UV crosslinking of s^4TCPm to ribosomes; assay type: binding
Method: (§1) Crosslinking of ribosomes by s^4TCPm: Tight-couple E. coli 70S ribosomes (2 μM) were incubated with 1.2 equivalents (2.4 μM) of gene 32 mRNA and of deacylated CF23 tRNA^Phe in 20 mM Tris, pH 7.5, 30 mM MgCl2, 50 mM NH4Cl, 6 mM 2-mercaptoethanol, and 10% MeOH. Saturating s^4TCPm (20 μM) (or [^32P]-s^4TCPm) was then added and the mixture was incubated at 37° C. for 10 minutes. Crosslinking of s^4TCPm to B. stearothermophilus 70S ribosomes was performed under similar conditions except with 30 mM Tris pH 7.5, 10 mM MgCl2, and 330 mM KCl. Complexes were exposed for varying lengths of time to a hand-held UV light source (UVL-56, Blak-Ray Lamp, UVP, Inc.—366 nm) at a distance of 3 cm. […] Analysis of the amount of substrate crosslinked to the r-proteins was determined as described by Breitmeyer and Noller, J. Mol. Biol., 1976, 101:297-306.
Crosslinking to the peptidyl transferase A site: To target binding of the crosslinking reagent specifically to the peptidyl transferase A site, the P site of E. coli tight-couple 70S ribosomes, programed with a shortened version of bacteriophage T4 gene 32 mRNA, was filled with deacylated tRNA^Phe, followed by binding of radioactively labeled [^32P]-s^4TCPm (FIG. 3B). […] Total RNA was prepared from the UV-irradiated ribosomal complexes by phenol extraction and analyzed on a 3.8% denaturing polyacrylamide gel. […]

[3] = system: B. stearothermophilus 70S ribosomes 23S rRNA; assay: UV crosslinking of s^4TCPm to B. stearothermophilus ribosomes; assay type: binding; settings: compared with E. coli ribosomes
Method: as §1, with “cm. Intact rRNAs were phenol extracted, and resolved on 3.8% polyacrylamide/7 M urea gels.” for “cm.”
The position of the crosslinked A-site substrate was first localized with a series of RNase H digestions to the region between positions 2538 and 2593 of 23S rRNA. Assignment of the site of crosslinking to position G2553 was achieved using primer extension analysis. Because of the impaired ability of reverse transcriptase to read modified bases on the rRNA template, a major cDNA product was obtained terminating one nucleotide 3′ to the modified base. […]

E. coli 50S subunit = assay: Peptidyl transferase reactivity of the crosslinked complex; assay type: biochemical; settings: CACCA-(N-Ac-Phe), fragment reaction conditions
Method: (§2) Kinetic analysis of crosslinked ribosomal complex: Crosslinked 50S subunits were separated from 30S subunits, gene 32 mRNA, and deacylated tRNA^Phe on 5%-20% sucrose gradients in 10 mM Tris-Cl, pH 7.5, 30 mM NH4Cl, and 1 mM MgCl2, and spun in an SW41 rotor at 19,000 rpm for 16 hours. Excess sucrose was removed and the buffer exchanged to 20 mM Tris, pH 7.5, 100 mM NH4Cl, and 5 mM MgCl2 using Centricon 100 tubes spun at 2600 rpm in an SS34 rotor. Peptidyl transferase assays were done as follows: crosslinked 50S subunit complexes (0.5 μM) were incubated in standard fragment reaction conditions (50 mM Tris, pH 8.3, 0.4 M potassium acetate (KOAc), 60 mM MgCl2, and 33% MeOH) with CACCA-(N-Ac-Phe) (2 μM). Aliquots were removed from the reaction at the indicated times, rRNAs phenol extracted, digested with RNase T1, and the fragments resolved on 24% polyacrylamide/6 M urea gels. […] When incubated with ribosomes at these concentrations, these antibiotics protect specific positions in 16S and 23S rRNA from chemical modification. […] Ribosomal RNAs were phenol extracted and analyzed on a 3.8% polyacrylamide—7 M urea gel. […]

[4] = system: B. stearothermophilus 50S; assay: Peptidyl transferase reactivity of the crosslinked B. stearothermophilus complex; assay type: biochemical; settings: minimal P-site substrates
Method: as §2

23S rRNA (2555 loop) = assay: Antibiotic inhibition of crosslinking by s^4TCPm to 23S rRNA; assay type: binding, E. coli; settings: antibiotics 0.1 mM (neomycin 0.01 mM, puromycin 1 mM); limiting [32P]-s^4TCPm
Method: FIGS. 5A and 5B are graphs that indicate antibiotic inhibition of crosslinking by s^4TCPm to 23S rRNA (5A) and of peptidyl transferase activity of crosslinked complex (s^4TCPm-50S) (5B). Values were normalized to 1.0 for reactions where no antibiotics were included.
Kinetic analysis of crosslinked ribosomal complex: Crosslinked 50S subunits were separated from 30S subunits, gene 32 mRNA, and deacylated tRNA^Phe on 5%-20% sucrose gradients in 10 mM Tris-Cl, pH 7.5, 30 mM NH4Cl, and 1 mM MgCl2, and spun in an SW41 rotor at 19,000 rpm for 16 hours. Excess sucrose was removed and the buffer exchanged to 20 mM Tris, pH 7.5, 100 mM NH4Cl, and 5 mM MgCl2 using Centricon 100 tubes spun at 2600 rpm in an SS34 rotor. Peptidyl transferase assays were done as follows: crosslinked 50S subunit complexes (0.5 μM) were incubated in standard fragment reaction conditions (50 mM Tris, pH 8.3, 0.4 M potassium acetate (KOAc), 60 mM MgCl2, and 33% MeOH) with CACCA-(N-Ac-Phe) (2 μM). Aliquots were removed from the reaction at the indicated times, rRNAs phenol extracted, digested with RNase T1, and the fragments resolved on 24% polyacrylamide/6 M urea gels. […] When incubated with ribosomes at these concentrations, these antibiotics protect specific positions in 16S and 23S rRNA from chemical modification. Antibiotic inhibition of crosslinking was performed using limiting [^32P]-s^4TCPm and a single time point (2 minutes) of exposure […] to long-wave length (366 nm) UV light (in the linear range of the reaction) under standard conditions. Ribosomal RNAs were phenol extracted and analyzed on a 3.8% polyacrylamide—7 M urea gel. Antibiotic inhibition of PT activity was performed with the fragment P-site substrate, CACCA-(N-Ac-Phe), supplied at a concentration of 0.3 μM; a single linear time point of 4 minutes was used for analysis.
While sparsomycin is known to stabilize P-site substrate binding, it also competes effectively for binding with puromycin in the A site. As sparsomycin is ineffective in the context of a covalently tethered puromycin substrate, but active in preventing the crosslinking of s^4TCPm, it seems likely that its mode of inhibition results primarily from its effect on A-site interactions. Puromycin had no effect on the peptidyl transferase activity of the crosslinked complex, consistent with the high effective concentration of the s^4TCPm substrate covalently bound in the A site. These effects of the various antibiotics on the activity of the 50S subunit-s^4TCPm complex provide further evidence that the synthetic substrate, s^4TCPm, is crosslinked to its physiologically correct binding site.

[5] = system: crosslinked 50S subunit-s^4TCPm complex; assay: Antibiotic inhibition of peptidyl transferase activity of the crosslinked complex (s^4TCPm-50S); assay type: biochemical, E. coli; settings: antibiotics 0.1 mM (neomycin 0.01 mM, puromycin 1 mM); CACCA-(N-Ac-Phe) 0.3 μM, 4 minutes
Method: Kinetic analysis of crosslinked ribosomal complex: Crosslinked 50S subunits were separated from 30S subunits, gene 32 mRNA, and deacylated tRNA^Phe on 5%-20% sucrose gradients in 10 mM Tris-Cl, pH 7.5, 30 mM NH4Cl, and 1 mM MgCl2, and spun in an SW41 rotor at 19,000 rpm for 16 hours. Excess sucrose was removed and the buffer exchanged to 20 mM Tris, pH 7.5, 100 mM NH4Cl, and 5 mM MgCl2 using Centricon 100 tubes spun at 2600 rpm in an SS34 rotor. Peptidyl transferase assays were done as follows: crosslinked 50S subunit complexes (0.5 μM) were incubated in standard fragment reaction conditions (50 mM Tris, pH 8.3, 0.4 M potassium acetate (KOAc), 60 mM MgCl2, and 33% MeOH) with CACCA-(N-Ac-Phe) (2 μM). Aliquots were removed from the reaction at the indicated times, rRNAs phenol extracted, digested with RNase T1, and the fragments resolved on 24% polyacrylamide/6 M urea gels. […] Antibiotic inhibition of PT activity was performed with the fragment P-site substrate, CACCA-(N-Ac-Phe), supplied at a concentration of 0.3 μM; a single linear time point of 4 minutes was used for analysis.

Compound	Km [1] [µM]	inhibition of crosslinking of s^4TCPm to the 2555 loop of 23S rRNA (23S rRNA (2555 loop))	inhibition of peptidyl transferase reactivity of the crosslinked complex [5]	also measured
4-thio-dT-p-C-p-Puromycin [s^4TCPm]	~10			crosslinking to ribosomal proteins [2]: absence of significant crosslinking; UV irradiation time at which the crosslinking reaction was complete ([2]; 366 nm UV): 10 min; crosslinking efficiency with B. stearothermophilus ribosomes [3]: similarly efficient; crosslinked population reacted with P-site substrate (E. coli 50S subunit; 2 minutes): approximately 50%; crosslinked population reacted with P-site substrate (E. coli 50S subunit; 12 minutes): 85%; peptidyl transferase kinetics slower than E. coli complex [4]: ca. 10 fold
COc1ccc(CC(N)C(=O)NC2C(COP(=O)(O)OC3C(CO)OC(n4ccc(N)nc4=O)C3O)OC(n3cnc4c(N(C)C)ncnc43)C2O)cc1 (stereo not shown) [CPm, C-p-Puromycin]	~10			
CO[C@@H]1[C@@H](O[C@@H]2O[C@H](C)[C@@H](O[C@H]3C[C@@](C)(O)[C@@H](OC(=O)CC(C)C)[C@H](C)O3)[C@H](N(C)C)[C@H]2O)[C@@H](CC=O)C[C@@H](C)C(=O)/C=C/[C@@H]2O[C@@H]2C[C@@H](C)OC(=O)C[C@H]1OC(C)=O [carbomycin]		specifically inhibited	effectively inhibited	
O=C(N[C@H](CO)[C@H](O)c1ccc([N+](=O)[O-])cc1)C(Cl)Cl [chloramphenicol]		specifically inhibited	effectively inhibited	
CC[C@H]1OC(=O)[C@H](C)[C@@H](O[C@H]2C[C@@](C)(OC)[C@@H](O)[C@H](C)O2)[C@H](C)[C@@H](O[C@@H]2O[C@H](C)C[C@H](N(C)C)[C@H]2O)[C@](C)(O)C[C@@H](C)C(=O)[C@H](C)[C@@H](O)[C@]1(C)O [erythromycin]		no effect		
COc1ccc(C[C@H](N)C(=O)N[C@H]2[C@@H](O)[C@H](n3cnc4c(N(C)C)ncnc43)O[C@@H]2CO)cc1 [puromycin]	~400	specifically inhibited	no effect	
CSC[S@+]([O-])C[C@H](CO)NC(=O)/C=C/c1c(C)[nH]c(=O)[nH]c1=O [sparsomycin]		strongly inhibited	no inhibitory effect	
neomycin		no effect		
